Tests used:
[1] = target: Kappa-type opioid receptor (Rattus norvegicus, UniProt P34975)
[2] = target: Mu-type opioid receptor (Rattus norvegicus, UniProt P33535)
[3] = target: Delta-type opioid receptor (Rattus norvegicus, UniProt P33533)
Chain of Delta-type opioid receptor (P33533 whole entry): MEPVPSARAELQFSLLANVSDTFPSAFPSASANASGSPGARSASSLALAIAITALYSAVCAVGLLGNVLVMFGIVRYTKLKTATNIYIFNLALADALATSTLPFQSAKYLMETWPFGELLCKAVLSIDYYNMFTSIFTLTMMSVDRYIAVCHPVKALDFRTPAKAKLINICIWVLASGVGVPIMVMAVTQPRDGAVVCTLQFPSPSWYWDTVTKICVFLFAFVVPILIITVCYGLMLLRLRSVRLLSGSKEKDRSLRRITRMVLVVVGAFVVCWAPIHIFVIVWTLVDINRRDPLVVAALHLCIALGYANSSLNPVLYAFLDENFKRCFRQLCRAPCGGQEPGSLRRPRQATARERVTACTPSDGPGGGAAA

Chain of Mu-type opioid receptor (P33535 whole entry): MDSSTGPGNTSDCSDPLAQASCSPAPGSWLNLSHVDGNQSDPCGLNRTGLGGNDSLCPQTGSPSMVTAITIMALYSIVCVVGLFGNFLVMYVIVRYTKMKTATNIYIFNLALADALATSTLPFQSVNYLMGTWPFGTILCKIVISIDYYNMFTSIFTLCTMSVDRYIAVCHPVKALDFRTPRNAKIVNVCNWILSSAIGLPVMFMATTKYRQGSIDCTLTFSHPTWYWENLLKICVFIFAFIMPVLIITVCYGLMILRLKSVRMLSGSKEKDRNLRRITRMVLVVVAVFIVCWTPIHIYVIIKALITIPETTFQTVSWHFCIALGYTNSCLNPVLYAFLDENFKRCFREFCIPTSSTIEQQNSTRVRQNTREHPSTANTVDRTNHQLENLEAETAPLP
Chain of Kappa-type opioid receptor (P34975 whole entry): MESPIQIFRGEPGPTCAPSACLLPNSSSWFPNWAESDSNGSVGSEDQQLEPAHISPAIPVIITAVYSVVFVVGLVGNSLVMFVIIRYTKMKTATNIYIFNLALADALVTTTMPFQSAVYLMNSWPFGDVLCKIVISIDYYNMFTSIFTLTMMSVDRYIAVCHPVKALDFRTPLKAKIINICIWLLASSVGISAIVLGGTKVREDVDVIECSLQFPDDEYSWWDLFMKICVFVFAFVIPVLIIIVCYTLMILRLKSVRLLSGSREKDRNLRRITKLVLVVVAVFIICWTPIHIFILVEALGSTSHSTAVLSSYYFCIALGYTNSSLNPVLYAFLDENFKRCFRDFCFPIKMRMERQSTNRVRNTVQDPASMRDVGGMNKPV

Structure (SMILES)	Ki [1] [nM]	Ki [2] [nM]	Ki [3] [nM]
CCO[C@@]12Cc3c([nH]c4ccccc34)[C@]3(C)Oc4c(O)ccc5c4[C@@]31CCN(CC1CC1)C2C5 [HS-378]	134	340	
COC12CC[C@@H](N[C@H](C)C(=O)O)[C@@H]3Oc4c(O)ccc5c4[C@@]31CCN(C)C2C5 (stereo partly drawn) [(2S)-2-[4,5alpha-epoxy-3-hydroxy-14beta-methoxy-17-methylmorphinan-6beta-yl)amino]propanoic acid bis(tetrafluoroborate)]	63.7		7.71
COC12CC[C@H](N[C@H](C)C(=O)O)[C@@H]3Oc4c(O)ccc5c4[C@@]31CCN(C)C2C5 (stereo partly drawn) [(2S)-2-[4,5alpha-epoxy-3-hydroxy-14beta-methoxy-17-methylmorphinan-6alpha-yl)amino]propanoic acid bis(tetrafluoroborate)]	142		26.9
COC12CC[C@@H](N[C@H](Cc3ccccc3)C(=O)O)[C@@H]3Oc4c(O)ccc5c4[C@@]31CCN(C)C2C5 (stereo partly drawn) [(2S)-2-[(4,5alpha-epoxy-3-hydroxy-14beta-methoxy-17-methylmorphinan-6beta-yl)amino]-3-phenylpropanoic acid bis(tetrafluoroborate)]	151	2.58	1.03
COC12CC[C@H](N[C@H](Cc3ccccc3)C(=O)O)[C@@H]3Oc4c(O)ccc5c4[C@@]31CCN(C)C2C5 (stereo partly drawn) [(2S)-2-[(4,5alpha-epoxy-3-hydroxy-14beta-methoxy-17-methylmorphinan-6alpha-yl)amino]-3-phenylpropanoic acid bis(tetrafluroborate)]	28.5	0.95	
